Test results published in patent publication US20250179073A1, “TRICYCLIC HETEROCYCLE COMPOUNDS AS IAP ANTAGONISTS” (Ascentage Pharma (Suzhou) Co., Ltd., priority 2022, published 2025).

How the values were obtained:
[1] = system: EVSA-T cells; test: Cell proliferation assay (CellTiter-Glo), EVSA-T; assay type: cell-based; conditions: Homo sapiens, EVSA-T, 72 h, 72 h treatment, Celltiter-Glo luminescence
Summary of the method: (§1)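 MDA-MB-231 (RPMI-1640/10% FBS) and EVSA-T (MEM/10% FBS) cells, 10000 cells/well, exposed 72 h to compound at […]. Viability read by CellTiter-Glo luminescence after 15 min at room temperature. IC50 from control-normalised curve fitting.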

[2] = system: MDA-MB-231 cells; test: Cell proliferation assay (CellTiter-Glo), MDA-MB-231; assay type: cell-based; conditions: Homo sapiens, MDA-MB-231, 72 h, 72 h treatment, Celltiter-Glo luminescence
Summary of the method: as §1

| SMILES | IC50 [1] | IC50 [2] |
| --- | --- | --- |
| C[C@@H]1CN(CC(=O)N2CC(C)(C)c3c2cc(Cc2ccc(F)cc2)c2nc(C(N)=O)cn32)[C@@H](CN2CCOC[C@H]2C)CN1 [Example 20, 4-(4-fluorobenzyl)-8,8-dimethyl-6-(2-((2R,5R)-5-methyl-2-(((R)-3-methylmorpholino)methyl)piperazin-1-yl)acetyl)-7,8-dihydro-6H-imidazo[1,2-a]pyrrolo[2,3-e]pyridine-2-carboxamide] | 13 nM | 110 nM |
| C[C@@H]1CN(CC(=O)N2CC(C)(C)c3c2cc(Cc2ccc(F)cc2)c2nc(C(F)(F)F)cn32)[C@@H](CN2CCOC[C@H]2C)CN1 [Compound 116, 1-(4-(4-fluorobenzyl)-8,8-dimethyl-2-(trifluoromethyl)-7,8-dihydro-6H-imidazo[1,2-a]pyrrolo[2,3-e]pyridin-6-yl)-2-((2R,5R)-5-methyl-2-(((R)-3-methylmorpholino)methyl)piperazin-1-yl)ethan-1-one] | 19 nM | 93 nM |
| C[C@@H]1CN(CC(=O)N2CC(C)(C)c3c2cc(Cc2ccc(F)cc2)c2nn(CC4(O)CC4)c(=O)n32)[C@@H](CN2CCOC[C@H]2C)CN1 [Compound 240, 4-(4-fluorobenzyl)-2-((1-hydroxycyclopropyl)methyl)-8,8-dimethyl-6-(2-((2R,5R)-5-methyl-2-(((R)-3-methylmorpholino)methyl)piperazin-1-yl)acetyl)-2,6,7,8-tetrahydro-1H-pyrrolo[2,3-e][1,2,4]triazolo[4,3-a]pyridin-1-one] | 5.9 nM | 25 nM |
| C[C@@H]1CN(CC(=O)N2CC(C)(C)c3c2cc(Cc2ccc(F)cc2)c2ncnn32)[C@@H](CN2Cc3ncccc3C2=O)CN1 [Compound 95, 6-(((2R,5R)-1-(2-(4-(4-fluorobenzyl)-8,8-dimethyl-7,8-dihydro-6H-pyrrolo[2,3-e][1,2,4]triazolo[1,5-a]pyridin-6-yl)-2-oxoethyl)-5-methylpiperazin-2-yl)methyl)-6,7-dihydro-5H-pyrrolo[3,4-b]pyridin-5-one] | 0.4 nM | 12 nM |
| C[C@@H]1CN(CC(=O)N2CC(C)(C)c3c2cc(Cc2ccc(F)cc2)c2nc(C4COCCO4)nn32)[C@@H](CN2CCOC[C@H]2C)CN1 (stereo partly drawn) [Compound 206, 1-(2-(1,4-dioxan-2-yl)-4-(4-fluorobenzyl)-8,8-dimethyl-7,8-dihydro-6H-pyrrolo[2,3-e][1,2,4]triazolo[1,5-a]pyridin-6-yl)-2-((2R,5R)-5-methyl-2-(((R)-3-methylmorpholino)methyl)piperazin-1-yl)ethan-1-one] | 2 nM | 18 nM |
| C[C@@H]1CN(CC(=O)N2CC(C)(C)c3c2cc(Cc2ccc(F)cc2)c2nn(CC(C)(C)O)c(=O)n32)[C@@H](CN2CCN(CC(F)(F)F)C[C@H]2C)CN1 [Compound 266, 4-(4-fluorobenzyl)-2-(2-hydroxy-2-methylpropyl)-8,8-dim ethyl-6-(2-((2R,5R)-5-methyl-2-(((R)-2-methyl-4-(2,2,2-trifluoroethyl)piperazin-1-yl)methyl)piperazin-1-yl)acetyl)-2,6,7,8-tetrahydro-1H-pyrrolo[2,3-e][1,2,4]triazolo[4,3-a]pyridin-1-one] | 4.9 nM | 16 nM |
| C[C@@H]1CN(CC(=O)N2CC(C)(C)c3c2cc(Cc2ccc(F)cc2F)c2nn(C(C)(C)CO)c(=O)n32)[C@@H](CN2CCOC[C@H]2C)CN1 [Compound 275, 4-(2,4-difluorobenzyl)-2-(1-hydroxy-2-methylpropan-2-yl)-8,8-dimethyl-6-(2-((2R,5R)-5-methyl-2-(((R)-3-methylmorpholino)methyl)piperazin-1-yl)acetyl)-2,6,7,8-tetrahydro-1H-pyrrolo[2,3-e][1,2,4]triazolo[4,3-a]pyridin-1-one] | 3.1 nM | 9 nM |
| C[C@@H]1CN(CC(=O)N2CC(C)(C)c3c2cc(Cc2ccc(F)cc2Cl)c2ncnn32)[C@@H](CN2CCOC[C@H]2C)CN1 [Compound 123, 1-(4-(2-chloro-4-fluorobenzyl)-8,8-dimethyl-7,8-dihydro-6H-pyrrolo[2,3-e][1,2,4]triazolo[1,5-a]pyridin-6-yl)-2-((2R,5R)-5-methyl-2-(((R)-3-methylmorpholino)methyl)piperazin-1-yl)ethan-1-one] | 43 nM | 120 nM |
| C[C@@H]1CN(CC(=O)N2CC(C)(C)c3c2cc(Cc2ccc(F)cc2)c2ccnn32)[C@@H](CN2CCOC[C@H]2C)CN1 [Compound 148, 1-(4-(4-fluorobenzyl)-8,8-dimethyl-7,8-dihydro-6H-pyrazolo[1,5-a]pyrrolo[2,3-e]pyridin-6-yl)-2-((2R,5R)-5-methyl-2-(((R)-3-methylmorpholino)Methyl)piperazin-1-yl)ethan-1-one] | 6 nM | 100 nM |
| C[C@@H]1CN(CC(=O)N2CC(C)(C)c3c2cc(Cc2ccc(F)cc2)c2nc(N(C)C=O)nn32)[C@@H](CN2CCOC[C@H]2C)CN1 [Compound 241, N-(4-(4-fluorobenzyl)-8,8-dimethyl-6-(2-((2R,5R)-5-methy 1-2-(((R)-3-methylmorpholino)methyl)piperazin-1-yl)acetyl)-7,8-dihydro-6H-pyrrolo[2,3-e][1,2,4]triazolo[1,5-a]pyridin-2-yl)-N-methylformamide] | 6.3 nM | 15 nM |
| CC(=O)Nc1nc2c(Cc3ccc(F)cc3)cc3c(n2n1)C(C)(C)CN3C(=O)CN1C[C@@H](C)NC[C@@H]1CN1CCOC[C@H]1C [Example 29, N-(4-(4-fluorobenzyl)-8,8-dimethyl-6-(2-((2R,5R)-5-methyl-2-(((R)-3-methylmorpholino)methyl)piperazin-1-yl)acetyl)-7,8-dihydro-6H-pyrrolo[2,3-e][1,2,4]triazolo[1,5-a]pyridin-2-yl)acetamide] | 10 nM | 100 nM |
| COCc1nc2c(Cc3ccc(F)cc3)cc3c(n2n1)C(C)(C)CN3C(=O)CN1C[C@@H](C)NC[C@@H]1CN1CCOC[C@H]1C [Compound 250, 1-(4-(4-fluorobenzyl)-2-(methoxymethyl)-8,8-dimethyl-7,8-dihydro-6H-pyrrolo[2,3-e][1,2,4]triazolo[1,5-a]pyridin-6-yl)-2-((2R,5R)-5-methy 1-2-(((R)-3-methylmorpholino)methyl)piperazin-1-yl)ethan-1-one] | 6.1 nM | 18 nM |
| C[C@@H]1CN(CC(=O)N2CC(C)(C)c3c2cc(Cc2ccc(F)cc2)c2nn(C4CCOCC4)c(=O)n32)[C@@H](CN2CCOC[C@H]2C)CN1 [Compound 190, 4-(4-fluorobenzyl)-8,8-dimethyl-6-(2-((2R,5R)-5-methyl-2-(((R)-3-methylmorpholino)methyl)piperazin-1-yl)acetyl)-2-(tetrahydro-2H-pyran-4-yl)-2,6,7,8-tetrahydro-1H-pyrrolo[2,3-e][1,2,4]triazolo[4,3-a]pyridin-1-one] | 3 nM | 14 nM |
| C[C@@H]1CN(CC(=O)N2CC(C)(C)c3c2cc(Cc2ccc(F)cc2)c2nn(C4CC(O)C4)c(=O)n32)[C@@H](CN2CCOC[C@H]2C)CN1 (stereo partly drawn) [Compound 271, 4-(4-fluorobenzyl)-2-(3-hydroxycyclobutyl)-8,8-dimethyl-6-(2-((2R,5R)-5-methyl-2-(((R)-3-methylmorpholino)methyl)piperazin-1-yl)acetyl)-2,6,7,8-tetrahydro-1H-pyrrolo[2,3-e][1,2,4]triazolo[4,3-a]pyridin-1-one] | 2.2 nM | 22 nM |
| C[C@@H]1CN(CC(=O)N2CC(C)(C)c3c2cc(Cc2ccc(F)cc2)c2nn(CC#N)c(=O)n32)[C@@H](CN2CCOC[C@H]2C)CN1 [Compound 185, 2-(4-(4-fluorobenzyl)-8,8-dimethyl-6-(2-((2R,5R)-5-methyl-2-(((R)-3-methylmorpholino)methyl)piperazin-1-yl)acetyl)-1-oxo-7,8-dihydro-1H-pyrrolo[2,3-e][1,2,4]triazolo[4,3-a]pyridin-2(6H)-yl)acetonitrile] | 7 nM | 23 nM |
| CC(O)c1nc2c(Cc3ccc(F)cc3)cc3c(n2n1)C(C)(C)CN3C(=O)CN1C[C@@H](C)NC[C@@H]1CN1CCOC[C@H]1C (stereo partly drawn) [Compound 154, 1-(4-(4-fluorobenzyl)-2-(1-hydroxyethyl)-8,8-dimethyl-7,8-dihydro-6H-pyrrolo[2,3-e][1,2,4]triazolo[1,5-a]pyridin-6-yl)-2-((2R,5R)-5-methy 1-2-(((R)-3-methylmorpholino)methyl)piperazin-1-yl)ethan-1-one] | 5 nM | 100 nM |
| C[C@@H]1CN(CC(=O)N2CC(C)(C)c3c2cc(Cc2ccc(F)cc2)c2nn(CC(F)(F)CO)c(=O)n32)[C@@H](CN2CCOC[C@H]2C)CN1 [Compound 242, 2-(2,2-difluoro-3-hydroxypropyl)-4-(4-fluorobenzyl)-8,8-dimethyl-6-(2-((2R,5R)-5-methyl-2-(((R)-3-methylmorpholino)methyl)piperazin-1-yl)acetyl)-2,6,7,8-tetrahydro-1H-pyrrolo[2,3-e][1,2,4]triazolo[4,3-a]pyridin-1-one] | 2.7 nM | 18 nM |
| C[C@@H]1CN(CC(=O)N2CC(C)(C)c3c2cc(Cc2ccc(F)cc2)c2nn(Cc4cccc(F)n4)c(=O)n32)[C@@H](CN2CCOC[C@H]2C)CN1 [Compound 219, 4-(4-fluorobenzyl)-2-((6-fluoropyridin-2-yl)methyl)-8,8-di methyl-6-(2-((2R,5R)-5-methyl-2-(((R)-3-methylmorpholino)methyl)piperazin-1-yl)acetyl)-2,6,7,8-tetrahydro-1H-pyrrolo[2,3-e][1,2,4]triazolo[4,3-a]pyridin-1-one] | 2 nM | 47 nM |
| C[C@@H]1CN(CC(=O)N2CC(C)(C)c3c2cc(Cc2ccc(F)cc2)c2nc(Cl)cn32)[C@@H](CN2CCOC[C@H]2C)CN1 [Compound 113, 1-(2-chloro-4-(4-fluorobenzyl)-8,8-dimethyl-7,8-dihydro-6H-imidazo[1,2-a]pyrrolo[2,3-e]pyridin-6-yl)-2-((2R,5R)-5-methyl-2-(((R)-3-methylmorpholino)methyl)piperazin-1-yl)ethan-1-one] | 6 nM | 74 nM |
